In this experiment the test system is IgE antibodies from patients. The experiment in a line: Wheat epitope mapping (2): overlapping 10-amino-acid peptide fragments shifted by one amino acid.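 For epitope sequence binding to IgE antibody, rank (Key/Preferably/More preferably): key of grades: preferably = shorter partial sequence still acting as epitope; more preferably = sequence improving IgE binding; key = particularly important sequence.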 In kind it is binding, human. The conditions noted are these: for Epitope sequence binding to IgE antibody, rank of the sequence (Key/Preferably/More preferably): sequence without X. Summed up:
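Residual binding was banded as <30% none, 30–<50% poor, 50–<70% somewhat poor and ≥70% retained, relative to the parent overlapping sequence set to 100%. Values were chemiluminescent IgE signals from patient sera after subtracting secondary-antibody-only controls. The peptides were spot-synthesised 10-mers shifted by one amino acid.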

Regarding “1927 (QFPGQQ; REGION 1..6: note = epitope) [compound 1927]”, the “epitope sequence binding to IgE antibody, rank (Key/Preferably/More preferably)” value (serum of patient P14 (WDEIA)) is listed as “Key”.
On to “1928 (VPLVQQQ; REGION 1..7: note = epitope) [compound 1928]”, for which the “epitope sequence binding to IgE antibody, rank (Key/Preferably/More preferably)” value (serum of patient P15 (WDEIA)) is “Key”.
Same read-out and setting: for “1929 (QFPGQQQ; REGION 1..7: note = epitope) [compound 1929]” the value was “Preferably”.
For the substance “1930 (FPGQQQ; REGION 1..6: note = epitope) [compound 1930]”, the “epitope sequence binding to IgE antibody, rank (Key/Preferably/More preferably)” value (serum of patient P15 (WDEIA)) is “Key”.
As to “1932 (QVPLVQQQ; REGION 1..8: note = epitope) [compound 1932]”, the “epitope sequence binding to IgE antibody, rank (Key/Preferably/More preferably)” value (serum of patient P17 (WDEIA)) was “Preferably”.
Same read-out and setting: for “1933 (VPLVQQ; REGION 1..6: note = epitope) [compound 1933]” the value was “Key”.
With “1936 (QVPLVQQ; REGION 1..7: note = epitope) [compound 1936]”, the “epitope sequence binding to IgE antibody, rank (Key/Preferably/More preferably)” value (serum of patient P19 (WDEIA)) was “Key”.
On the same count and under the same terms, the same measure for “1937 (QQFPGQQQ; REGION 1..8: note = epitope) [compound 1937]”: “Preferably”; for “1938 (QFPGQQ; REGION 1..6: note = epitope) [compound 1938]”: “Key”.
For “1939 (QVPLVQQ; REGION 1..7: note = epitope) [compound 1939]”, where the note is “serum of patient P21 (WDEIA)”, the “epitope sequence binding to IgE antibody, rank (Key/Preferably/More preferably)” value was “Preferably”.
Still for that read-out and setting: for “1940 (VPLVQ; REGION 1..5: note = epitope) [compound 1940]” the value was “Key”; for “1941 (QQFPGQQQ; REGION 1..8: note = epitope) [compound 1941]”, “More preferably”.
On to “1942 (QQFPGQQ; REGION 1..7: note = epitope) [compound 1942]”, for which, for the setting “serum of patient P21 (WDEIA)”, the “epitope sequence binding to IgE antibody, rank (Key/Preferably/More preferably)” value is listed as “Preferably”.
Regarding “1943 (QFPGQQ; REGION 1..6: note = epitope) [compound 1943]”, the “epitope sequence binding to IgE antibody, rank (Key/Preferably/More preferably)” value (serum of patient P21 (WDEIA)) is “Key”.
Consider “1944 (QFPGQQQ; REGION 1..7: note = epitope) [compound 1944]”, for which the “epitope sequence binding to IgE antibody, rank (Key/Preferably/More preferably)” value (serum of patient P22 (WDEIA)) is “More preferably”.
Turning to “1945 (FPGQQ; REGION 1..5: note = epitope) [compound 1945]”, the “epitope sequence binding to IgE antibody, rank (Key/Preferably/More preferably)” value (serum of patient P22 (WDEIA)) is reported as “Preferably”.
Still for that read-out and setting: the same measure for “1946 (FPGQ; REGION 1..4: note = epitope) [compound 1946]”: “Key”.
Turning to “1948 (QVPLVQQQ; REGION 1..8: note = epitope) [compound 1948]”, for the setting “serum of patient P24 (WDEIA)”, the “epitope sequence binding to IgE antibody, rank (Key/Preferably/More preferably)” value is “Preferably”.
Still for that read-out and setting: the same measure for “1949 (VPLVQQ; REGION 1..6: note = epitope) [compound 1949]”: “Key”; for “1950 (QQQFPGQQQ; REGION 1..9: note = epitope) [compound 1950]”: “More preferably”; for “1951 (QFPGQQQ; REGION 1..7: note = epitope) [compound 1951]”: “Preferably”.
The same measure, in the same setting: the same measure for “1952 (QFPGQQ; REGION 1..6: note = epitope) [compound 1952]”: “Key”.
With “1954 (QQFPGQQ; REGION 1..7: note = epitope) [compound 1954]”, where the note is “serum of patient P26 (WDEIA)”, the “epitope sequence binding to IgE antibody, rank (Key/Preferably/More preferably)” value is on record as “Preferably”.
For the substance “1955 (QFPGQ; REGION 1..5: note = epitope) [compound 1955]”, the “epitope sequence binding to IgE antibody, rank (Key/Preferably/More preferably)” value (serum of patient P26 (WDEIA)) is “Key”.
In the case of “1958 (QQFPGQQQ; REGION 1..8: note = epitope) [compound 1958]”, where the note is “serum of patient P28 (WDEIA)”, the “epitope sequence binding to IgE antibody, rank (Key/Preferably/More preferably)” value is “More preferably”.
Still for that read-out and setting: the same measure for “1959 (QFPGQQ; REGION 1..6: note = epitope) [compound 1959]”: “Preferably”.
For “1961 (QQQQFPGQQ; REGION 1..9: note = epitope) [compound 1961]”, the “epitope sequence binding to IgE antibody, rank (Key/Preferably/More preferably)” value (serum of patient P32 (WDEIA)) is reported as “Preferably”.
Consider “1962 (QQQFPGQQ; REGION 1..8: note = epitope) [compound 1962]”, for which the “epitope sequence binding to IgE antibody, rank (Key/Preferably/More preferably)” value (serum of patient P32 (WDEIA)) is “Key”.
For the substance “1964 (QQQFPGQQ; REGION 1..8: note = epitope) [compound 1964]”, the “epitope sequence binding to IgE antibody, rank (Key/Preferably/More preferably)” value (serum of patient P33 (WDEIA)) is recorded as “More preferably”.
Same read-out and setting: for “1965 (QQFPGQQ; REGION 1..7: note = epitope) [compound 1965]” the value was “Preferably”; for “1966 (QFPGQQ; REGION 1..6: note = epitope) [compound 1966]”, “Key”.
In the case of “1967 (VPLVQQQ; REGION 1..7: note = epitope) [compound 1967]”, the “epitope sequence binding to IgE antibody, rank (Key/Preferably/More preferably)” value (serum of patient P34 (WDEIA)) is “Key”.
Same read-out and setting: for “1968 (QFPGQQ; REGION 1..6: note = epitope) [compound 1968]” the value was “Key”.
In the case of “2219 (IRNYRVAI; REGION 1..8: note = epitope) [compound 2219]”, for the setting “serum of patient P2 (WDEIA)”, the “Epitope sequence binding to IgE antibody, rank of the sequence (Key/Preferably/More preferably)” value is on record as “Preferably”.
Still for that read-out and setting: for “2220 (NYRV; REGION 1..4: note = epitope) [compound 2220]” the value was “Key”.
On to “2221 (IRNYR; REGION 1..5: note = epitope) [compound 2221]”, for which the “Epitope sequence binding to IgE antibody, rank of the sequence (Key/Preferably/More preferably)” value (serum of patient P7 (WDEIA)) is listed as “Key”.
In the case of “2222 (RLLRGIRNY; REGION 1..9: note = epitope) [compound 2222]”, the “Epitope sequence binding to IgE antibody, rank of the sequence (Key/Preferably/More preferably)” value (serum of patient P8 (WDEIA)) is recorded as “Key”.
Still for that read-out and setting: for “2223 (IRNYRVA; REGION 1..7: note = epitope) [compound 2223]” the value was “Key”.
In the case of “2224 (IRNYRVA; REGION 1..7: note = epitope) [compound 2224]”, the “Epitope sequence binding to IgE antibody, rank of the sequence (Key/Preferably/More preferably)” value (serum of patient P16 (WDEIA)) was “Key”.
In the case of “2225 (VSRLLRGIRN; REGION 1..10: note = epitope) [compound 2225]”, the “Epitope sequence binding to IgE antibody, rank of the sequence (Key/Preferably/More preferably)” value (serum of patient P17 (WDEIA)) is on record as “Key”.
Still for that read-out and setting: the same measure for “2226 (RNYR; REGION 1..4: note = epitope) [compound 2226]”: “Key”.
With “2227 (LLRGIRN; REGION 1..7: note = epitope) [compound 2227]”, the “Epitope sequence binding to IgE antibody, rank of the sequence (Key/Preferably/More preferably)” value (serum of patient P18 (WDEIA)) is “Key”.
Still for that read-out and setting: for “2228 (NYRVAI; REGION 1..6: note = epitope) [compound 2228]” the value was “Key”.
“2230 (IRNYRV; REGION 1..6: note = epitope) [compound 2230]”: the “Epitope sequence binding to IgE antibody, rank of the sequence (Key/Preferably/More preferably)” value (serum of patient P21 (WDEIA)) is listed as “Key”.
As for “2231 (IRNY; REGION 1..4: note = epitope) [compound 2231]”, under “serum of patient P28 (WDEIA)”, the “Epitope sequence binding to IgE antibody, rank of the sequence (Key/Preferably/More preferably)” value is given as “Key”.

The values above are taken from US20240393292A1, “ALLERGY ANTIGEN AND EPITOPE THEREOF” (HOYU CO., LTD., priority 2019, published 2024).
